{"source": "patent US20210369662A1", "about": "“FAT ACCUMULATION INHIBITOR AND BLOOD LIPID LEVEL IMPROVING AGENT” (ASAHI GROUP HOLDINGS, LTD., priority 2018, published 2021)", "key": {"[1]": {"system": "C57BL/6N male mice on high-fat diet", "test": "Fat accumulation in high-fat diet mice (CT scan and adipose tissue weight)", "format": "in vivo", "settings": "15 weeks", "procedure": "(§1) The animal experiment was approved by the Animal Experiment Committee of Asahi Group Holdings, Ltd. (Mar. 9, 2017), and was conducted in accordance with the guidelines for the management and use of laboratory animals of the company's R&D center (implementation period: Apr. 3, 2017 to Jan. 10, 2018). Four-week-old C57BL/6N male mice (Japan SLC, Inc.) were purchased and used for the experiment. The mice were raised in the following environment: room temperature: 23±1.5° C., humidity: 55±15%, lighting time: 8:00 to 20:00.\n(§2) High-fat diet containing 45 kcal % fat (Research Diets, Inc., D12451) was used to prepare feed with or without 0.1% 10-HOA. The four-week-old mice were acclimated to the high-fat diet for 2 weeks, then divided into two groups: (1) high-fat diet control group and (2) 0.1% 10-HOA-containing high-fat diet group, with 10 mice per group, and were administered the diet for 15 weeks. Feed and drinking water (tap water) were given freely by individual housing.\n(§3) After fasting for 16 hours from the day before dissection, the amount of abdominal visceral fat, subcutaneous fat, and total fat (sum of the amount of visceral fat and subcutaneous fat) were measured by a CT scanner (Latheta LCT-100; Hitachi Aloka Medical, Ltd.), under anesthesia by isoflurane inhalation. Then, the abdomen was opened under anesthesia, and blood was collected from the abdominal vena cava. Visceral fat (perirenal fat, and retroperitoneal fat) and jejunal epithelial tissue were collected to measure the weight of adipose tissue. The above test was repeated three times, and an analysis was performed by a two-way analysis of variance (factor 1: test group, factor 2: number of animal experiments) (n=10×3/group)."}, "[2]": {"system": "C57BL/6N male mice on high-fat diet", "test": "Plasma lipids and apolipoprotein A-I in high-fat diet mice", "format": "in vivo", "settings": "0.1% 10-HOA in high-fat diet, 15 weeks", "procedure": "as §1, §2, §3\nThe triglyceride concentration in the plasma was measured using a Triglyceride E test. The amount of cholesterol in the plasma was measured using a conventional method (G. Toshima et al., LipoSEARCH (registered trademark); Analytical GP-HPLC method for lipoprotein profiling and its applications, J. Biol. Macromol., 13 (2), 21-32 (2013)) at Skylight Biotech Inc,. Mouse Apolipoprotein A-I ELISAPRO kit (MABTECH) was used for the measurement of apolipoprotein A-I in the plasma. The jejunal epithelial tissue was collected by QIAzol Lysis Reagent (QIAGEN), and total RNA was extracted according to the product protocol of RNeasy Mini Kit (QIAGEN). Total RNA was reverse transcribed by M-MLV Reverse Transcriptase (Life Technologies Japan Ltd.) to prepare cDNA. To measure the mRNA expression level, real-time PCR by the intercalator method was performed using Light Cycler System (Roche Diagnostics K.K.). […] The mRNA expression level was expressed as a relative value to the control group."}, "[3]": {"system": "cholesterol transporter (NPC1L1)", "test": "Gene expression level of cholesterol transporter in jejunal epithelial tissue (real-time PCR)", "format": "in vivo, mice", "settings": "0.1% 10-HOA in high-fat diet, 15 weeks, mRNA relative to control group, internal standard 36b4 (FIG. 8)", "procedure": "as §1\nHigh-fat diet containing 45 kcal % fat (Research Diets, Inc., D12451) was used to prepare feed with or without 0.1% 10-HOA. […]\nAfter fasting for 16 hours from the day before dissection, the amount of abdominal visceral fat, subcutaneous fat, and total fat (sum of the amount of visceral fat and subcutaneous fat) were measured by a CT scanner (Latheta LCT-100; Hitachi Aloka Medical, Ltd.), under anesthesia by isoflurane inhalation. […]\nThe triglyceride concentration in the plasma was measured using a Triglyceride E test. The amount of cholesterol in the plasma was measured using a conventional method (G. Toshima et al., LipoSEARCH (registered trademark); Analytical GP-HPLC method for lipoprotein profiling and its applications, J. Biol. Macromol., 13 (2), 21-32 (2013)) at Skylight Biotech Inc,. […] The mRNA expression level was expressed as a relative value to the control group."}, "[4]": {"settings": "0.1% 10-HOA in high-fat diet (45 kcal % fat), adipose tissue weight, n=10x3/group"}}}
{"molecule": "CCCCCCCCC(O)CCCCCCCCC(=O)O", "note": "(stereo not shown) [10-HOA, 10-hydroxyoctadecanoic acid]", "values": [{"measurement": "Fat on the posterior abdominal wall", "setting": "[1]; [4]", "result": "0.6805 ± 0.0206", "unit": "g"}, {"measurement": "Perirenal fat", "setting": "[1]; [4]", "result": "0.4924 ± 0.0130", "unit": "g"}, {"measurement": "weights of perirenal fat and retroperitoneal fat", "setting": "[1]; 0.1% 10-HOA in high-fat diet, compared to control (Table 1)", "result": "reduced"}, {"measurement": "amount of abdominal visceral fat", "setting": "[1]; CT scanner, 0.1% 10-HOA in high-fat diet, compared to control group (FIG. 1)", "result": "significantly reduced"}, {"measurement": "total amount of fat", "setting": "[1]; CT scanner, sum of visceral and subcutaneous fat, 0.1% 10-HOA in high-fat diet, compared to control (FIG. 3)", "result": "decreasing tendency"}, {"measurement": "triglyceride concentration in plasma", "setting": "[2]; 16 h fasting, compared to control (FIG. 4)", "result": "decreasing tendency"}, {"measurement": "Apolipoprotein A-I in plasma", "setting": "[2]; ELISA, compared to control (FIG. 6)", "result": "increasing tendency"}, {"measurement": "small HDL cholesterol in plasma", "setting": "[2]; compared to control (FIG. 5)", "result": "significantly increased"}, {"measurement": "chylomicron cholesterol in plasma", "setting": "[2]; compared to control (FIG. 7)", "result": "significant decrease"}, {"measurement": "gene expression level of the cholesterol transporter (NPC1L1) in jejunal epithelial tissue", "setting": "[3]", "result": "decrease"}]}
